PubChem BioAssay (NCI)
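All cell lines were grown in 96-well plates and treated with compound for 48 hours. GI50 marks 50% less growth. TGI: total growth inhibition.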

Tests used:
Experiment in all cases: NCI anticancer screen, dose series, 48 h
SNB-19 CNS = tested on: SNB-19 CNS
OVCAR-8 ovarian = tested on: OVCAR-8 ovarian
NCI-H226 lung = tested on: NCI-H226 lung
U251 CNS = tested on: U251 CNS
HOP-92 NSCLC = tested on: HOP-92 NSCLC
RPMI-8226 leukemia = tested on: RPMI-8226 leukemia
OVCAR-5 ovarian = tested on: OVCAR-5 ovarian
NCI-H23 lung = tested on: NCI-H23 lung
SK-OV-3 ovarian = tested on: SK-OV-3 ovarian
SR leukemia = tested on: SR leukemia
MALME-3M melanoma = tested on: MALME-3M melanoma
NCI-H522 lung = tested on: NCI-H522 lung
EKVX NSCLC = tested on: EKVX NSCLC
HS 578T breast = tested on: HS 578T breast
SF-268 CNS = tested on: SF-268 CNS
786-0 renal = tested on: 786-0 renal
SN12C renal = tested on: SN12C renal
RXF 393 renal = tested on: RXF 393 renal
A498 renal = tested on: A498 renal
DU-145 prostate = tested on: DU-145 prostate
OVCAR-3 ovarian = tested on: OVCAR-3 ovarian
MCF7 breast = tested on: MCF7 breast
MDA-MB-435 = tested on: MDA-MB-435
A549 NSCLC = tested on: A549 NSCLC
SK-MEL-5 melanoma = tested on: SK-MEL-5 melanoma
HOP-62 NSCLC = tested on: HOP-62 NSCLC
HT29 colon = tested on: HT29 colon
MDA-MB-468 breast = tested on: MDA-MB-468 breast
BT-549 breast = tested on: BT-549 breast
UO-31 renal = tested on: UO-31 renal
HCT-15 colon = tested on: HCT-15 colon
NCI-H460 lung = tested on: NCI-H460 lung
CAKI-1 renal = tested on: CAKI-1 renal
SK-MEL-2 melanoma = tested on: SK-MEL-2 melanoma
SF-295 CNS = tested on: SF-295 CNS
IGROV1 ovarian = tested on: IGROV1 ovarian
T-47D breast = tested on: T-47D breast
K-562 leukemia = tested on: K-562 leukemia
OVCAR-4 ovarian = tested on: OVCAR-4 ovarian
CCRF-CEM leukemia = tested on: CCRF-CEM leukemia
SF-539 CNS = tested on: SF-539 CNS
SW-620 colon = tested on: SW-620 colon
UACC-62 melanoma = tested on: UACC-62 melanoma
PC-3 prostate = tested on: PC-3 prostate
TK-10 renal = tested on: TK-10 renal
MOLT-4 leukemia = tested on: MOLT-4 leukemia
SNB-75 CNS = tested on: SNB-75 CNS
HCT-116 colon = tested on: HCT-116 colon
HL-60(TB) leukemia = tested on: HL-60(TB) leukemia
M14 melanoma = tested on: M14 melanoma
HCC-2998 colon = tested on: HCC-2998 colon
COLO 205 colon = tested on: COLO 205 colon
SK-MEL-28 melanoma = tested on: SK-MEL-28 melanoma
UACC-257 melanoma = tested on: UACC-257 melanoma
KM12 colon = tested on: KM12 colon
MDA-MB-231 breast = tested on: MDA-MB-231 breast
LOX IMVI melanoma = tested on: LOX IMVI melanoma
ACHN renal = tested on: ACHN renal

## C=C1CC[C@@H]2[C@]3(C)COC(c4cn[nH]c4-c4ccc(C)cc4)O[C@@H]3CC[C@@]2(C)[C@@H]1C/C=C1/C(=O)OCC1O (stereo partly specified)
SNB-19 CNS
  GI50: 14.5 µM
  TGI: 27.6 µM
OVCAR-8 ovarian
  GI50: 9.29 µM
  TGI: > 100 µM
NCI-H226 lung
  GI50: 17.8 µM
  TGI: 44.7 µM
U251 CNS
  GI50: 11.9 µM
  TGI: 28.6 µM
HOP-92 NSCLC
  GI50: 17.8 µM
  TGI: 42.5 µM
RPMI-8226 leukemia
  GI50: 4.73 µM
  TGI: > 100 µM
OVCAR-5 ovarian
  GI50: 15.5 µM
  TGI: 32.6 µM
NCI-H23 lung
  GI50: 14 µM
  TGI: 27 µM
SK-OV-3 ovarian
  GI50: 26.5 µM
  TGI: 74.8 µM
SR leukemia
  GI50: 7.16 µM
  TGI: > 100 µM
MALME-3M melanoma
  GI50: 15.8 µM
  TGI: 33.5 µM
NCI-H522 lung
  GI50: 7.01 µM
  TGI: 22.5 µM
EKVX NSCLC
  GI50: 18.2 µM
  TGI: 43.8 µM
HS 578T breast
  GI50: 63.9 µM
  TGI: > 100 µM
SF-268 CNS
  GI50: 34.7 µM
  TGI: > 100 µM
786-0 renal
  GI50: 16.7 µM
  TGI: 33.2 µM
SN12C renal
  GI50: 17.3 µM
  TGI: 42.8 µM
RXF 393 renal
  GI50: 12.5 µM
  TGI: 25 µM
A498 renal
  GI50: 21 µM
  TGI: 37.2 µM
DU-145 prostate
  GI50: 24.6 µM
  TGI: > 100 µM
OVCAR-3 ovarian
  GI50: 3.39 µM
  TGI: 13.8 µM
MCF7 breast
  GI50: 4.88 µM
  TGI: 19.4 µM
MDA-MB-435
  GI50: 7.38 µM
  TGI: 73.9 µM
A549 NSCLC
  GI50: 26.4 µM
  TGI: > 100 µM
SK-MEL-5 melanoma
  GI50: 12.6 µM
  TGI: 25.3 µM
HOP-62 NSCLC
  GI50: 21.7 µM
  TGI: 75.2 µM
HT29 colon
  GI50: 13.1 µM
  TGI: 45.8 µM
MDA-MB-468 breast
  GI50: 6.94 µM
  TGI: 22.1 µM
BT-549 breast
  GI50: 11.1 µM
  TGI: 37.8 µM
UO-31 renal
  GI50: 12.5 µM
  TGI: 25.7 µM
HCT-15 colon
  GI50: 10.1 µM
  TGI: 25.5 µM
NCI-H460 lung
  GI50: 20 µM
  TGI: 46.9 µM
CAKI-1 renal
  GI50: 12.5 µM
  TGI: > 100 µM
SK-MEL-2 melanoma
  GI50: 13.9 µM
  TGI: 30.4 µM
SF-295 CNS
  GI50: 18.2 µM
  TGI: 36.5 µM
IGROV1 ovarian
  GI50: 17.5 µM
  TGI: 39.7 µM
T-47D breast
  GI50: 13.9 µM
  TGI: > 100 µM
K-562 leukemia
  GI50: 5.55 µM
  TGI: > 100 µM
OVCAR-4 ovarian
  GI50: 64.8 µM
  TGI: > 100 µM
CCRF-CEM leukemia
  GI50: 2.85 µM
  TGI: > 100 µM
SF-539 CNS
  GI50: 12.7 µM
  TGI: 25.3 µM
SW-620 colon
  GI50: 4.6 µM
  TGI: 17.5 µM
UACC-62 melanoma
  GI50: 13.3 µM
  TGI: 27 µM
PC-3 prostate
  GI50: 21.7 µM
  TGI: > 100 µM
TK-10 renal
  GI50: 22.5 µM
  TGI: 48.3 µM
MOLT-4 leukemia
  GI50: 5.14 µM
  TGI: > 100 µM
SNB-75 CNS
  GI50: 20.6 µM
  TGI: > 100 µM
HCT-116 colon
  GI50: 5.33 µM
  TGI: 20.6 µM
HL-60(TB) leukemia
  GI50: 3.38 µM
  TGI: 56.4 µM
M14 melanoma
  GI50: 12.6 µM
  TGI: 26.2 µM
HCC-2998 colon
  GI50: 16.7 µM
  TGI: 30.4 µM
COLO 205 colon
  GI50: 15.5 µM
  TGI: 29.9 µM
SK-MEL-28 melanoma
  GI50: 12.8 µM
  TGI: 27 µM
UACC-257 melanoma
  GI50: 15.2 µM
  TGI: 44.4 µM
KM12 colon
  GI50: 13.7 µM
  TGI: 35.8 µM
MDA-MB-231 breast
  GI50: 19.2 µM
  TGI: 43.5 µM
LOX IMVI melanoma
  GI50: 3.76 µM
  TGI: 15.7 µM
ACHN renal
  GI50: 15.7 µM
  TGI: 36.3 µM
